Laboratory results published in patent US20240398823A1, “DUAL INHIBITOR OF HISTONE DEACETYLASE 6 AND HEAT SHOCK PROTEIN 90” (TAIPEI MEDICAL UNIVERSITY, priority 2021, published 2024).

Legend:
HDAC6 = biological target: T1, HDAC6 (Homo sapiens, UniProt Q9UBN7); test: HDAC enzymes inhibition assay (Reaction Biology), HDAC6; type: biochemical; conditions: 10-dose, 3-fold dilution from 10 μM, single experiment
T1 construct: Reaction Biology Corporation (ran the assay as a service)
T1 sequence (Q9UBN7 1-1215): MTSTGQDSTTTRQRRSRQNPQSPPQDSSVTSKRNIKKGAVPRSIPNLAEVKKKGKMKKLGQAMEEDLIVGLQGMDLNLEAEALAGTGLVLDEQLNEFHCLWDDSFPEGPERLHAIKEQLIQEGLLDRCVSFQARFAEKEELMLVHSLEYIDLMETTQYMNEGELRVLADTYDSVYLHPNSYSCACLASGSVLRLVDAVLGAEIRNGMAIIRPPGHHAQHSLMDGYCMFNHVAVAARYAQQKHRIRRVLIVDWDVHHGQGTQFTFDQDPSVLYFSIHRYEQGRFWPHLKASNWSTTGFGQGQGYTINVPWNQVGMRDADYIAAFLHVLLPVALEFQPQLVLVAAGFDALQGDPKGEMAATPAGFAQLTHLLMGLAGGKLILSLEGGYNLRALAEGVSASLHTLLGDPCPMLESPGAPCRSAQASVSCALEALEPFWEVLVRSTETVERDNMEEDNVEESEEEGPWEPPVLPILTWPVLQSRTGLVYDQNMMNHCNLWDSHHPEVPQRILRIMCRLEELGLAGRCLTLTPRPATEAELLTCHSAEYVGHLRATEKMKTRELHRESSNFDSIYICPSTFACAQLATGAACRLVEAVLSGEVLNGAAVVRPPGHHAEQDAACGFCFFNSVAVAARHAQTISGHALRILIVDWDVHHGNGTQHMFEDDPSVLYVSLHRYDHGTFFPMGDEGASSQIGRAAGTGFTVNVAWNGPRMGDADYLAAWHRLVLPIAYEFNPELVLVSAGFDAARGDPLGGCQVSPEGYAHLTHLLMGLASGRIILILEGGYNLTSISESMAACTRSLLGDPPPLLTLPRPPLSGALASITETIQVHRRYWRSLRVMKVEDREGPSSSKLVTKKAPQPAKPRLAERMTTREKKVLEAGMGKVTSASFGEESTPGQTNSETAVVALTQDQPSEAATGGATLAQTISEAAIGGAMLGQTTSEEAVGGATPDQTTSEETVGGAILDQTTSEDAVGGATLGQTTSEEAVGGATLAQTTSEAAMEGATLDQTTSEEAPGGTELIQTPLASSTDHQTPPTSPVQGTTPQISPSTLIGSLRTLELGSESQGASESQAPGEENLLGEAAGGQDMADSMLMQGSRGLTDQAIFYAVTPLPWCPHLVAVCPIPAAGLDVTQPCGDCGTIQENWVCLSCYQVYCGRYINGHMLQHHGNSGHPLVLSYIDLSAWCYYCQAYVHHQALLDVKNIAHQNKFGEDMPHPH

[1] = system: acetylation of α-tubulin and histone H3; test: Western blot of α-tubulin and histone H3 acetylation in HCT116; type: cell-based, human; conditions: HCT116, 0.25-1 μM, 6 hours
Method: The ability of α-tubulin and histone H3 acetylation was measured.
(§1) The effects of the HSP90/HDAC6 dual inhibitors as described in Synthesis Examples (such as Compounds 63, 64, and 66 to 76) on several factors were evaluated. Cells were lysed in RIPA buffer (Thermo Fisher Scientific, Wal-tham, MA, USA) and protease inhibitor (Roche, Basel, CH). Sample were further separated in 8% or 15% SDS-PAGE and transferred to nitrocellulose membrane and blocked with 5% skim milk (w/v in PBS). Nitrocellulose membranes were then incubated with primary antibodies against the following antigens: HSP90, Src, AKT, Rb, phosphorylated Rb (p-Rb), FAK, HSP70, α-tubulin acetylation, acetyl histone H3, phosphorylated STAT1 (p-STAT1), STAT1 (Cell signaling, Danvers, MA, USA), α-tubulin, Histone H3 (Genetex, Irvine, USA), IDO (Santa Cruz Biotechnology Dallas, TX, USA) and PD-L1 (Novus, Littleton, CO, USA) at 4° C. for overnight. The target proteins were visualized by using HRP-conjugated secondary antibodies (Jackson ImmunoResearch Laboratories, West Grove, PA, USA) and enhanced chemiluminescence kit (Thermo Fisher Scientific, Waltham, MA, U.S.A.).
The ability of Compound 75 on the acetylation of α-tubulin and histone H3 was evaluated. HCT116 cells were administered with Compound 75 for 6 hours and analyzed by western blot. […] Next, whether Compound 75 inhibited HSP90 was evaluated. […]

[2] = system: human colon normal epithelial cells (CCD841CON); test: MTT cytotoxicity to normal cells, CCD841CON; type: cell-based; conditions: CCD-841CoN, 48 hours, read-out: IC50, proliferation of CCD841CON
Method: FIGS. 3A and 3B show the effects of Compound 75 on cytotoxicity to normal cell lines. Cells were treated with DMSO or different concentrations of Compound 75 for 48 hours and cell viability was assessed by MTT assay. […] Data are expressed as mean t S.D. N values greater than 3. * P<0.05; ** P<0.01; *** P<0.001, compared with the control group.
The effects on cell viability of the HSP90/HDAC6 dual inhibitors as described in Synthesis Examples (such as Compounds 63, 64, and 66 to 76) were evaluated. Cells were seeded in 96-well plates (5000 cells/well). The next day, the serially diluted drugs were added into the wells and incubated at 37° C. for 48 h. Cell viability was measured by the MTT assay and is expressed as percentages of surviving drug-treated cells relative to untreated control cells. The IC50 was calculated by non-linear regression analysis.
The cytotoxicity to normal cells of Compound 75 was evaluated.

[3] = system: PD-L1 and IDO expression in HCT116 and CT26 cell lines; test: Western blot of IFN-γ-induced PD-L1 and IDO, STAT1 pathway, in HCT116 and CT26; type: cell-based, human; mouse; conditions: HCT116 and CT26, 48 hours, via p-STAT1 and STAT1
Method: The cells were tested in 6-well plates with 32×10^4 cells/well and co-treated with Compound 75 for 48 hours and analyzed by flow cytometry. Bar, SD.
as §1
Using western blot, whether Compound 75 reduced […]-induced PD-L1 and IDO performance by inhibiting STAT1 pathway was evaluated.

[4] = Toxicity, body weight and blood counts in BALB/c mice with CT26 tumors; type: in vivo
[5] = CT26 in Balb/c, 10, 25, 50 mg/kg i.v. every two days

COc1ccc(N(Cc2ccc(C(=O)NO)cc2)C(=O)c2cc(C(C)C)c(O)cc2O)cc1 [Compound 75, 2,4-Dihydroxy-N-(4-hydroxycarbamoyl-benzyl)-5-isopropyl-N-(4-methoxy-phenyl)-benzamide]
IC50 (HDAC6): 4.56 nM
acetylation of α-tubulin and histone H3 [1]: enhances the acetylation of α-tubulin and histone H3
IC50 [2]: > 20000 nM
IFN-γ-induced PD-L1 and IDO expression [3]: downregulated PD-L1 and IDO expression
body weight [4, 5]: no significant change in body weight
toxicity in mice [4, 5]: no significant toxicity
white blood cell, lymphocyte, red blood cell, hemoglobin and platelet counts, lymphocyte percentage ([4]; blood from heart on day 25, 10, 25, 50 mg/kg every two days, versus control group): not significantly different
organ toxicity or hematotoxicity ([4]; immunocompetent mice): does not cause significant organ toxicity or hematotoxicity
